Read-outs that look alike come from different tables or passages of the source.
What was measured:
[1] = tested on: P. aeruginosa PAO1 biofilm; assay: Biofilm eradication: 20 h biofilms treated with antibiotic and cationized phytoglycogen; assay type: cell-based, Pseudomonas aeruginosa; conditions: 24 h, medium alone
Experimental: Biofilm growth and treatments were performed in sterile 96 well polystyrene plates. Sterile solutions of gamma-irradiated cationized phytoglycogen was prepared by reconstitution and dilution as required in sterile Mueller-Hinton broth. P. aeruginosa PAO1 stocks were revived by sub-culturing P. aeruginosa PAO1 (37° C., 150 rpm, 16-18 h) in Mueller-Hinton broth (Oxoid; Fisher Scientific, Canada). The inoculum was prepared immediately prior to use by diluting in sterile Mueller-Hinton broth to a final in-assay cell density of 5×10^5 CFU.ml^−1. 100 μl of this solution was transferred to wells and incubated (37° C., 150 rpm). Sterile broth was the negative growth control. At 20 h, plates were transferred to a biological safety cabinet, well contents were gently aspirated and the wells rinsed with sterile 0.9% (wt/vol) NaCl. […] Positive growth controls contained inoculated medium, non-supplemented or with 1 or 10 mg cationized phytoglycogen.ml^−1. Plates were incubated at 37° C. for a further 24 h, after which biofilms were quantitated as previously described. Experiments were done in quadruplicate replicate and repeated three times (n=12).

P. aeruginosa PAO1 = assay: Sensitization to antibiotics: MIC in medium supplemented with phytoglycogen; assay type: cell-based, Pseudomonas aeruginosa; conditions: for ↓ Fold-change in MIC (cationized phytoglycogen) MIC.5 mg/ml: 0.5 mg cationized phytoglycogen · ml^−1 Mueller-Hinton Broth; for ↓ Fold-change in MIC (cationized phytoglycogen) MIC1 mg/ml: 1 mg cationized phytoglycogen · ml^−1 Mueller-Hinton Broth; for ↓ Fold-change in MIC (cationized phytoglycogen) MIC10 mg/ml: 10 mg cationized phytoglycogen · ml^−1 Mueller-Hinton Broth
Experimental: (§1) MIC assays as defined in Example 15 were performed in sterile and untreated 96 well microtitre plates according to the broth micro-dilution technique described in either the Clinical and Laboratory Standards Institute document M07-A9: Methods for Dilution Antimicrobial Susceptibility Tests for Bacteria that Grow Aerobically; Approved Standard and document M27-A2 Reference Method for Broth Dilution Antifungal Susceptibility Testing of Yeasts; Approved Standard—Second Edition, with the exception that, where indicated, medium was additionally supplemented with native or cationized phytoglycogen. Assessments done using C. utilis ATCC9950, B. subtilis 168 and E. coli AB264 employed native or cationized phytoglycogen at concentrations ⅛, ¼, ½ their respective MIC values for cationized phytoglycogen. Assessments of the opportunistic pathogen P. aeruginosa PAO1 were made at final in-assay concentrations of 0.5, 1 or 10 mg native or cationized phytoglycogen.ml^−1. Experiments were performed as in-assay duplicates, and were repeated a minimum of three times (n=6).
(§2) MIC assays were performed in duplicate within each experiment and were repeated a minimum three times to confirm the data (n=6). MIC values with a four-fold or greater change relative to the non-supplemented medium MIC represent a statistically-significant change in MIC value. Only those antibiotic-cationized phytoglycogen combinations which caused a four-fold change relative to the non-supplemented medium MIC were deemed as indicative of resulting in potentiation (MIC value was less), or tolerance (MIC value increased).

E. coli AB264 = assay: as above; assay type: cell-based; conditions: Escherichia coli; for fold-change reduction in MIC, CP0.125: cationized phytoglycogen at 0.125 of its MIC; for fold-change reduction in MIC, CP0.25: cationized phytoglycogen at 0.25 of its MIC; for fold-change reduction in MIC, CP0.5: cationized phytoglycogen at half-strength of its MIC
B. subtilis 168 = assay: as above; assay type: cell-based; conditions: Bacillus subtilis; for fold-change reduction in MIC, CP0.125: cationized phytoglycogen at 0.125 of its MIC; for fold-change reduction in MIC, CP0.25: cationized phytoglycogen at 0.25 of its MIC; for fold-change reduction in MIC, CP0.5: cationized phytoglycogen at half-strength of its MIC
C. utilis ATCC9950 = assay: as above; assay type: cell-based; conditions: Candida utilis
Experimental: as §1, §2

Candida utilis ATCC9950 = assay: MIC of amphotericin B-phytoglycogen conjugate, modified broth microdilution; assay type: cell-based; conditions: 35° C.
Experimental: The activity of the amphotericin B-phytoglycogen conjugate (PHG-AMB) was assayed against a yeast, Candida utilis ATCC9950, using a modified broth microdilution assay (CLSI M27-A2; Example 15). RPMI 1640 medium (Sigma-Aldrich; Canada), containing no sodium bicarbonate, supplemented with 0.165 M MOPS and adjusted to a pH of 7.0, was used for the assay. Stocks of 1600 μg AMB/ml DMSO were stored at −80° C. and diluted prior to use. 500 μg PHG-AMB.ml^−1 RPMI 1640 was prepared fresh on the day of assay. Briefly, doubling dilutions of 16 μg AMB.ml^−1 RPMI 1640 and 500 μg PHG-AMB.ml^−1 RPMI 1640 were prepared by serial two-fold dilution in RPMI 1640. Controls comprised AMB supplemented with phytoglycogen adjusted to mimic the changing concentration of PHG-AMB in the wells. Negative growth control wells contained sterile medium. Positive growth control wells contained medium or medium supplemented with phytoglycogen. […] Assays were performed as in duplicate replicate with a minimum of three independent replicates.

[2] = P. aeruginosa, non-supplemented Mueller-Hinton Broth
[3] = Pseudomonas aeruginosa, PAO1, P. aeruginosa, non-supplemented Mueller-Hinton Broth, read-out: MIC

Row | Molecule | ↓ Fold-change in MIC (cationized phytoglycogen) MIC.5 mg/ml (P. aeruginosa PAO1; P. aeruginosa) | ↓ Fold-change in MIC (cationized phytoglycogen) MIC1 mg/ml (P. aeruginosa PAO1; P. aeruginosa) | ↓ Fold-change in MIC (cationized phytoglycogen) MIC10 mg/ml (P. aeruginosa PAO1; P. aeruginosa) | fold-change reduction in MIC, CP0.125 (E. coli AB264) | fold-change reduction in MIC, CP0.25 (E. coli AB264) | fold-change reduction in MIC, CP0.5 (E. coli AB264) | fold-change reduction in MIC, CP0.125 (B. subtilis 168) | fold-change reduction in MIC, CP0.25 (B. subtilis 168) | fold-change reduction in MIC, CP0.5 (B. subtilis 168) | MIC (P. aeruginosa PAO1; [3]) | other results
1 | O=C(O)c1cn(C2CC2)c2cc(N3CCNCC3)c(F)cc2c1=O [ciprofloxacin] | – | – | – | – | – | – | – | – | – | – | change in biofilm of 20 h biofilms ([1]; at the MIC): no change in biofilm; reduction of biofilm ([1]; four-fold the MIC): 73%; reduction of biofilm ([1]; two-fold the MIC): 64%
2 | polymyxin B [polymixin B] | 1-2 fold | ↓ 2-4 fold | 2 fold | – | – | – | – | – | – | – | MIC (P. aeruginosa PAO1; [2]): 0.125 to 0.25 µg/mL
3 | CN[C@H](CC(C)C)C(=O)N[C@H]1C(=O)N[C@@H](CC(N)=O)C(=O)N[C@H]2C(=O)N[C@H]3C(=O)N[C@H](C(=O)N[C@H](C(=O)O)c4cc(O)cc(O)c4-c4cc3ccc4O)[C@H](O)c3ccc(c(Cl)c3)Oc3cc2cc(c3O[C@@H]2O[C@H](CO)[C@@H](O)[C@H](O)[C@H]2O[C@H]2C[C@](C)(N)[C@H](O)[C@H](C)O2)Oc2ccc(cc2Cl)[C@H]1O [vancomycin] | ↓ 2-4 fold | ↓ 16 fold | ↓ 4 fold | 1-2 fold | ↓2-4 ^ fold | ↓4-16^ fold | 1 fold | 1 fold | 1-2 fold | – | MIC (P. aeruginosa PAO1; Pseudomonas aeruginosa, PAO1, read-out: MIC (μg · ml^−1)): 1020 µg/mL
4 | CC1(C)S[C@@H]2[C@H](NC(=O)[C@H](N)c3ccccc3)C(=O)N2[C@H]1C(=O)O [ampicillin] | ↓ 8 fold | ↓ 8-16 fold | 2 fold | 1-2 fold | 1-2 fold | 1-2 fold | 1 fold | 1 fold | 2 fold | 1020 µg/mL | –
5 | CCn1cc(C(=O)O)c(=O)c2ccc(C)nc21 [nalidixic acid] | ↓ 4-32 fold | ↓ 16-32 fold | ↓ 8-16 fold | – | – | – | – | – | – | 1020 µg/mL | –
6 | CC(C)(O/N=C(\C(=O)N[C@@H]1C(=O)N2C(C(=O)[O-])=C(C[n+]3ccccc3)CS[C@H]12)c1csc(N)n1)C(=O)O [ceftazidime] | ↓ 8 fold | ↓ 32-64 fold | ↓ 4-8 fold | – | – | – | – | – | – | 2 µg/mL | –
7 | C[C@@H]1[C@H](O)[C@@H](C)/C=C/C=C/C=C/C=C/C=C/C=C/C=C/[C@H](O[C@@H]2O[C@H](C)[C@@H](O)[C@H](N)[C@@H]2O)C[C@@H]2O[C@](O)(C[C@@H](O)C[C@@H](O)[C@H](O)CC[C@@H](O)C[C@@H](O)CC(=O)O[C@H]1C)C[C@H](O)[C@H]2C(=O)O [amphotericin B] | – | – | – | – | – | – | – | – | – | – | fold-change reduction in MIC, CP0.125 (C. utilis ATCC9950; cationized phytoglycogen at 0.125 of its MIC): 1-2 fold; fold-change reduction in MIC, CP0.25 (C. utilis ATCC9950; cationized phytoglycogen at 0.25 of its MIC): 1 fold; fold-change reduction in MIC, CP0.5 (C. utilis ATCC9950; cationized phytoglycogen at half-strength of its MIC): ↓4 fold; MIC (Candida utilis ATCC9950; RPMI 1640, 48 h): 0.5 μg AMB.ml^−1; MIC (Candida utilis ATCC9950; RPMI 1640 supplemented with phytoglycogen, 48 h): 0.5 μg AMB.ml^−1
8 | CO[C@@H]1[C@@H](OC(N)=O)[C@@H](O)[C@H](Oc2ccc3c(O)c(NC(=O)c4ccc(O)c(CC=C(C)C)c4)c(=O)oc3c2C)OC1(C)C [novobiocin] | ↓ 4-16 fold | ↓ 16-32 fold | ↓ 4 fold | – | – | – | – | – | – | 2050 µg/mL | –
9 | CC[C@H]1OC(=O)[C@H](C)[C@@H](O[C@H]2C[C@@](C)(OC)[C@@H](O)[C@H](C)O2)[C@H](C)[C@@H](O[C@@H]2O[C@H](C)C[C@H](N(C)C)[C@H]2O)[C@](C)(O)C[C@@H](C)C(=O)[C@H](C)[C@@H](O)[C@]1(C)O [erythromycin] | ↓ 4 fold | ↓ 8 fold | 1-2 fold | 1-2 fold | 1-2 fold | 1-2 fold | 1-2 fold | ↓2-4 fold | ↓2-4 fold | 128 µg/mL | –
10 | CC1(C)S[C@@H]2[C@H](NC(=O)Cc3ccccc3)C(=O)N2[C@H]1C(=O)O [penicillin G] | ↓ 16-32 fold | ↓64-128 fold | ↓ 2-4 fold | 1-2 fold | ↓4-8 ^ fold | ↓8 fold | 1-2 fold | ↓8-16 fold | ↓16-32 fold | – | MIC (P. aeruginosa PAO1; [2]): 12500 µg/mL
11 | CC1(C)S[C@@H]2[C@H](NC(=O)C(C(=O)O)c3ccccc3)C(=O)N2[C@H]1C(=O)O (stereo partly shown) [carbenicillin] | ↓ 16-32 fold | ↓ 32 fold | ↓ 8-16 fold | 1-2 fold | ↓4-8 ^ fold | ↓8-16^ fold | 1 fold | 2 fold | ↓4-8 fold | 64 µg/mL | –
12 | gentamicin | 2 fold | 2 fold | 1 fold | 1-2 fold | 2 fold | ↓4-8 ^ fold | 1-2 fold | ↓2-4 fold | ↓4-8 fold | – | MIC (P. aeruginosa PAO1; [2]): 0.5 µg/mL
13 | CN(C)[C@@H]1C(O)=C(C(N)=O)C(=O)[C@@]2(O)C(O)=C3C(=O)c4c(O)cccc4[C@@](C)(O)[C@H]3C[C@@H]12 [tetracycline] | ↓ 8 fold | ↓ 8 fold | 2 fold | – | – | – | – | – | – | 16 to 32 µg/mL | –
14 | O=C(N[C@H](CO)[C@H](O)c1ccc([N+](=O)[O-])cc1)C(Cl)Cl [chloramphenicol] | ↓ 4 fold | ↓ 8 fold | 2 fold | 1-2 fold | 1-2 fold | 1-2 fold | 1 fold | ↓2-4 fold | – | 64 µg/mL | –
